Test results: patent US4994258A, “Gamma emitting, CCK-A antagonists for pancreatic imaging” (Merck & Co., Inc., priority 1990, dated 1991)

Experiments:
[1] = In vivo distribution of tritiated radioligand in pancreas; conditions: in vivo, iv
Experimental: (§1) Animals were euthanized at various times (15 min to 2 hr), and organs of interest removed for assay. Biopsy samples were counted in an autogamma counter (50% counting efficiency) for ^123 I labeled radioligand. For the tritiated radioligand, in rats and rabbits, 10 to 50 mg samples of pancreas and, in rats, several regions of CNS (cortex, interpeduncular nucleus, and substantial nigra) were solubilized in protosol® (New England Nuclear). Liquid scintillation cocktail was added and the samples were dark adapted for 16 hours, then counted in a liquid scintillation counter with automatic quench correction. Results were the average of at least five animals and were expressed as % dose/g (wet weight).

[2] = system: CCK-A receptors; test: as above; conditions: pancreas, tritiated radioligand
Experimental: as §1

[3] = system: CCK-A receptors; test: In vivo distribution after coinjection of unlabeled carboxamide (receptor-mediated binding); parameters: species or system rats
Experimental: (§2) Animals were euthanized at various times (15 min to 2 hr), and organs of interest removed for assay. […] […] Liquid scintillation cocktail was added and the samples were dark adapted for 16 hours, then counted in a liquid scintillation counter with automatic quench correction. Results were the average of at least five animals and were expressed as % dose/g (wet weight).

[4] = system: CCK-A receptors; conditions: mice, ^3 H and ^11 C labeled, high specific activity, 4 hours post intravenous injection; cited from earlier work
[5] = In vivo distribution necropsy after i.v. injection; parameters: species or system rats
Experimental: as §1

[6] = target: T1, CCK-A receptor from rat pancreas (Rattus norvegicus, UniProt P30551); test: In vitro binding assay, saturation studies with radioligand, rat pancreas
T1 construct: Pancreatae were removed from either rats or rabbits immediately after euthanasia; from tissue; host or cells: rat pancreas homogenate
T1 sequence (P30551 1-444): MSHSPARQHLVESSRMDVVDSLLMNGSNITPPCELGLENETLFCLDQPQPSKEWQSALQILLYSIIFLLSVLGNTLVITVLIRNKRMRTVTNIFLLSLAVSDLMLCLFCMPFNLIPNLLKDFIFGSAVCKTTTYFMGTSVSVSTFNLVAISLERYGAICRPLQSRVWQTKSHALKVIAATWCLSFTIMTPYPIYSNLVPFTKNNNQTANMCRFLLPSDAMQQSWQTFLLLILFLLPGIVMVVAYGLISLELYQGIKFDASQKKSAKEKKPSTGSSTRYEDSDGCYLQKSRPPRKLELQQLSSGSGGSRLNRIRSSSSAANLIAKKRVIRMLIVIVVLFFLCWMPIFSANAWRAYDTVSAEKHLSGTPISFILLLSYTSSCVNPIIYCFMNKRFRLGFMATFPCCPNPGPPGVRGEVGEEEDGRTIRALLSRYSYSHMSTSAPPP
Experimental: Pancreatae were removed from either rats or rabbits immediately after euthanasia and placed in ice-cold buffer (50 mM Tris·HCl (pH 7.4), 5 mM MgCl2, 5 mM DTT, 2 mg/ml BSA and 0.14 mg/ml bacitracin). The tissue (0.5 g pancreas) was homogenized in 200 ml of the ice-cold Tris buffer. Aliquots (0.1 ml) were added to various concentrations of radioligand (5 ml) in Tris buffer, incubated for 60 min at ambient temperatures, and filtered over GC-filters. After washing with ice cold Tris buffer (2×5 ml), the filters were air dried and counted in 10 ml of liquid scintillation cocktail (PCS, Amersham) in a Beckman LSC-5000. Data were converted to Molar concentrations and analyzed via SCAFIT, and data are presented by the method of Scatchard. The specific activity of the radioiodinated product was determined as that which provided the same concentration of receptor as obtained with the tritiated ligand.

[7] = In vivo distribution after coinjection of unlabeled carboxamide (receptor-mediated binding); parameters: species or system rats; conditions: rat, iv
Experimental: as §2

[8] = system: CCK-A receptors; parameters: species or system rats; conditions: rat, in vivo, iv
Experimental: Rats under ketamine/acepromazine anesthesia were positioned for either anterior or posterior dynamic (128×128×16) images. A large-field-of-view gamma camera with a low energy, all purpose collimator, peaked for ^123 I, was utilized. Thirty one-minute images were acquired immediately post intravenous administration of 0.2 mCi of [^123 I]3(S)-1,3-dihydro-3-(4-iodobenzoylamino)-1-methyl -5-phenyl-2H-1,4-benzodiazepin-2-one. To enable visualization of the liver alone, an unblocked rat was injected with 0.125 mCi of ^99m Tc-albumin colloid. A static one-minute image (128×128×16) was obtained then, without moving the animal, the dose of [^123 I]3(S)-1,3-dihydro-3-(4-iodobenzoylamino) -1-methyl-5-phenyl-2H-1,4-benzodiazepin-2-one was injected and imaging proceeded as described. Rabbits and African green monkeys under ketamine/ xylazine anesthesia were positioned for an anterior view and imaged as the rats were after an intravenous injection of 0.5 mCi of [^123 I] (S)-1,3-dihydro-3-(4-iodobenzoylamino) -1-methyl-5-phenyl-2H-1,4-benzodiazepin-2-one for rabbits, and 1.3 mCi for monkeys.
All blocked studies utilized a coinjection of 1 mg/kg of (R)-N-(2,3-dihydro-1-methyl-2-oxo-5-phenyl-1H-1, 4-benzodiazepin-3-yl)-1H-indole-2-carboxamide. […] Reduced data were expressed as count rates in regions of interest (ROI) as a function of time.

[9] = mice; cited from earlier work
[10] = cited from earlier work

In the case of `CN1C(=O)C(NC(=O)c2cc3ccccc3[nH]2)N=C(c2ccccc2)c2ccccc21` (stereo in doubt) [[^3 H](R)-N-(2,3-dihydro-1-methyl-2-oxo-5-phenyl-1H-1,4-benzodiazepin-3-yl)-1H-indole-2-carboxamide], the tissue uptake ([1]; 1 mg/kg) is reported as 0.25 %ID/g, the tissue uptake ([1]; 10 uCi) is reported as 2.1 %ID/g and the “receptor-mediated part of localization in the pancreas” value [2] is reported as 90%.

In the case of `CN1C(=O)[C@H](NC(=O)c2cc3ccccc3[nH]2)N=C(c2ccccc2)c2ccccc21` [(R)-N-(2,3-dihydro-1-methyl-2-oxo-5-phenyl-1H-1,4-benzodiazepin-3-yl) -1H-indole-2-carboxamide, reference compound], the “reduction of localization (of the [^123 I] radioligand in rat pancreas) by coinjection” value ([3]; coinjection 0.4 mg/kg, rat pancreas (Table 3)) is reported as 60-70%.

In the case of `CN1C(=O)[C@@H](NC(=O)c2cc3ccccc3[nH]2)N=C(c2ccccc2)c2ccccc21` [N-(2,3 Dihydro-1-methyl-2-oxo-5-phenyl-1H-1,4-benzodiazepine-3-yl) -1H-indole-2-carboxamide], the “localization in the pancreas” value [4] is listed as 76 % dose/gram.

`CN1C(=O)[C@@H](NC(=O)c2ccc([123I])cc2)N=C(c2ccccc2)c2ccccc21` [[^123 I]3(S)-1,3-Dihydro-3-(4-iodobenzoylamino)-1-methyl-5-phenyl-2 H-1,4-benzodiazepin-2-one] gave a tissue uptake at 0.5 h ([5]; rat, blood, iv, 10 uCi, blood, 30 min post-i.v. injection of 10 μCi, 95% confidence intervals (Table 4), read-out: % DOSE/GRAM, Blood) of 0.307 ± 0.051 %ID/g, a tissue uptake at 0.5 h ([5]; rat, descending colon, iv, 10 uCi, descending colon, 30 min post-i.v. injection of 10 μCi, 95% confidence intervals (Table 4), read-out: % DOSE/GRAM, Descending Colon) of 0.418 ± 0.073 %ID/g and a tissue uptake at 0.5 h ([5]; rat, liver, iv, 10 uCi, liver, 30 min post-i.v. injection of 10 μCi, 95% confidence intervals (Table 4), read-out: % DOSE/GRAM, Liver) of 1.96 ± 0.56 %ID/g. The tissue uptake at 0.5 h ([5]; rat, muscle, iv, 10 uCi, muscle, 30 min post-i.v. injection of 10 μCi, 95% confidence intervals (Table 4), read-out: % DOSE/GRAM, Muscle) was 0.319 ± 0.086 %ID/g, the tissue uptake at 0.25 h ([5]; rat, pancreas, iv, 10 uCi, pancreas, 15 min, i.v. injection, error range 95% confidence intervals (Table 2), read-out: % DOSE/GRAM in rat pancreas) was 2.07 ± 0.46 %ID/g and the tissue uptake at 0.5 h ([5]; rat, pancreas, iv, 10 uCi, pancreas, 30 min, i.v. injection, error range 95% confidence intervals (Table 2), read-out: % DOSE/GRAM in rat pancreas) was 1.9 ± 0.71 %ID/g. It also gave a tissue uptake at 0.5 h ([5]; rat, pancreas, iv, 10 uCi, pancreas, 30 min post-i.v. injection of 10 μCi, 95% confidence intervals (Table 4), read-out: % DOSE/GRAM, Pancreas) of 2.54 ± 0.93 %ID/g, a tissue uptake at 1 h ([5]; rat, pancreas, iv, 10 uCi, pancreas, 60 min, i.v. injection, error range 95% confidence intervals (Table 2), read-out: % DOSE/GRAM in rat pancreas) of 1.14 ± 0.13 %ID/g and a tissue uptake at 0.5 h ([5]; rat, pyloric sphincter, iv, 10 uCi, P. Sphincter (pyloric), 30 min post-i.v. injection of 10 μCi, 95% confidence intervals (Table 4), read-out: % DOSE/GRAM, P. Sphincter) of 1.25 ± 0.33 %ID/g. For the same compound, the tissue uptake at 0.5 h ([5]; rat, sigmoidal colon, iv, 10 uCi, sigmoidal colon, 30 min post-i.v. injection of 10 μCi, 95% confidence intervals (Table 4), read-out: % DOSE/GRAM, Sigmoidal Colon) was 0.5 ± 0.13 %ID/g, the tissue uptake at 0.5 h ([5]; rat, transverse colon, iv, 10 uCi, transverse colon, 30 min post-i.v. injection of 10 μCi, 95% confidence intervals (Table 4), read-out: % DOSE/GRAM, Transverse Colon) was 0.5 ± 0.18 %ID/g and the “ratio of activity in the pancreas to that in the blood and liver” value ([5]; rats) was “suggests sufficient localization to provide in vivo images of the pancreas”. The “affinity for the CCK-A receptor relative to [^3 H](R)-N-(2,3 dihydro-1-methyl-2-oxo-5-phenyl-1H-1,4-benzodiazepin-3-yl)-1H-indole-2-carboxamide (fold lower)” value [6] was 3 -fold lower, the tissue uptake at 0.5 h ([7]; blood, 0.4 mg/kg, blood, 30 min post-i.v. coinjection of 10 μCi with 0.4 mg/kg (R)-indole-2-carboxamide, 95% confidence intervals (Table 5), read-out: % DOSE/GRAM, Blood, coinjection) was 0.236 ± 0.03 %ID/g and the tissue uptake at 0.5 h ([7]; P. Sphincter (pyloric), 30 min post-i.v. coinjection of 10 μCi with 0.4 mg/kg (R)-indole-2-carboxamide, 95% confidence intervals (Table 5), read-out: % DOSE/GRAM, P. Sphincter, coinjection) was 0.705 ± 0.19 %ID/g. For the same compound, the tissue uptake at 0.5 h ([7]; descending colon, 30 min post-i.v. coinjection of 10 μCi with 0.4 mg/kg (R)-indole-2-carboxamide, 95% confidence intervals (Table 5), read-out: % DOSE/GRAM, Descending Colon, coinjection) was 0.434 ± 0.12 %ID/g, the tissue uptake at 0.5 h ([7]; sigmoidal colon, 30 min post-i.v. coinjection of 10 μCi with 0.4 mg/kg (R)-indole-2-carboxamide, 95% confidence intervals (Table 5), read-out: % DOSE/GRAM, Sigmoidal Colon, coinjection) was 0.6 ± 0.47 %ID/g and the tissue uptake at 0.5 h ([7]; transverse colon, 30 min post-i.v. coinjection of 10 μCi with 0.4 mg/kg (R)-indole-2-carboxamide, 95% confidence intervals (Table 5), read-out: % DOSE/GRAM, Transverse Colon, coinjection) was 0.384 ± 0.06 %ID/g. The tissue uptake at 0.5 h ([7]; liver, 0.4 mg/kg, liver, 30 min post-i.v. coinjection of 10 μCi with 0.4 mg/kg (R)-indole-2-carboxamide, 95% confidence intervals (Table 5), read-out: % DOSE/GRAM, Liver, coinjection) was 1.69 ± 0.39 %ID/g, the tissue uptake at 0.5 h ([7]; muscle, 0.4 mg/kg, muscle, 30 min post-i.v. coinjection of 10 μCi with 0.4 mg/kg (R)-indole-2-carboxamide, 95% confidence intervals (Table 5), read-out: % DOSE/GRAM, Muscle, coinjection) was 0.271 ± 0.04 %ID/g and the tissue uptake at 0.25 h ([7]; pancreas, 0.4 mg/kg, pancreas, 15 min, i.v. coinjection with 0.4 mg/kg (R)-indole-2-carboxamide, 95% confidence intervals (Table 3), read-out: % DOSE/GRAM in rat pancreas, coinjection) was 0.574 ± 0.065 %ID/g. It also gave a tissue uptake at 0.5 h ([7]; pancreas, 0.4 mg/kg, pancreas, 30 min, i.v. coinjection with 0.4 mg/kg (R)-indole-2-carboxamide, 95% confidence intervals (Table 3), read-out: % DOSE/GRAM in rat pancreas, coinjection) of 0.727 ± 0.18 %ID/g, a tissue uptake at 0.5 h ([7]; pancreas, 0.4 mg/kg, pancreas, 30 min post-i.v. coinjection of 10 μCi with 0.4 mg/kg (R)-indole-2-carboxamide, 95% confidence intervals (Table 5), read-out: % DOSE/GRAM, Pancreas, coinjection) of 0.9 ± 0.22 %ID/g and a tissue uptake at 1 h ([7]; pancreas, 0.4 mg/kg, pancreas, 60 min, i.v. coinjection with 0.4 mg/kg (R)-indole-2-carboxamide, 95% confidence intervals (Table 3), read-out: % DOSE/GRAM in rat pancreas, coinjection) of 0.472 ± 0.085 %ID/g. For the same compound, the “specific localization in the region of the pyloric sphincter” value ([3]; rats) was “specific localization is obtained in the region of the pyloric sphincter”, the “blockade of localization in the duodenum and colon” value ([3]; rats, duodenum and colon) was “significant blockade of localization was not demonstrated” and the “localization in the pancreas (imaging and biopsied samples)” value [8] was “did localize in the pancreas by a receptor-mediated mechanism”.

For `Cc1cc([131I])cc(CN(C)CCCN(C)C)c1O` [[^131 I]HIPDM, [^131 I]N, N, N'-trimethyl-N'-(2-hydroxy-3-methyl-5-iodobenzyl)-1,3-propanediamine], the “localization in the pancreas” value [9] is given as “localizes in the pancreas”.

In the case of `C[75Se]CC[C@H](N)C(=O)O` [^75 Se-selenomethionine], the biological clearance ([10]; in vivo) is listed as “slow biological clearance”, the “tracer localizing in the pancreas” value ([10]; in vivo) is listed as 5-7% and the “uptake in adjacent organs” value ([10]; primarily the liver) is listed as “high uptake in adjacent organs, primarily the liver”.
